Experimental data reported in patent US20130310412A1, “Combinations of an Opioid/TLR4 Antagonist and a Direct-Acting Alpha-2 Adrenergic Agonist for Use in the Treatment of Pain” (priority 2010, published 2013).
Like-named read-outs stand apart in the source and are kept apart here.

How the values were obtained:
[1] = biological target: Toll-like receptor 4 (TLR4) (Homo sapiens, UniProt O00206+Q9Y6Y9); conditions: cited from earlier work
neuropathic pain = conditions: animal models; cited from earlier work
opioid receptors = conditions: cited from earlier work
neuropathic back pain = assay: Naltrexone and clonidine alone and in combination in a human subject: pain treatment effect, weight to weight synergy; assay type: in vivo; conditions: one hour post-dose, naltrexone 4.5 mg alone, clonidine 0.3 mg alone, combinations with naltrexone 2.25 mg
Experimental: (§1) Naltrexone and clonidine were evaluated alone and in combination on a human subject with the purpose of finding whether or not a combination of the two compounds offers synergistic advantage. Two aspects were evaluated for synergy: one aspect was pain treatment effect comparing the amounts used weight to weight, and the other aspect was an assessment of synergy of side effects.
(§2) The components of the combination were administered to a subject in the following manner: naltrexone 4.5 mg was given in the morning. The clonidine dose was divided into two doses, a dose of 0.1 mg in the morning and a dose of 0.2 mg at bedtime. […] The pain treatment effect of naltrexone and clonidine was evaluated after one hour post-dose.
To determine synergy, the amounts of naltrexone and clonidine administered alone were compared to the combination combined amounts.

trigeminal neuralgia = assay: Case study trigeminal neuralgia, open label, pain intensity scores and percent relief (baseline days 1-6, study drug days 7-30); assay type: in vivo, human; conditions: from pain level 9
From the text: Trigeminal neuralgia, also known as suicide disease, is a neuropathic disorder characterized by episodes of intense pain in the face, originating from the trigeminal nerve. It has been described as among the most painful conditions known to mankind. This case study is of a person with a three month history of trigeminal neuralgia. […] The pain involved the right check, upper jaw and the upper front teeth. The pain was constant and described as burning, stinging and aching. It was aggravated by eating, brushing teeth, flossing, chewing and talking. The subject's pain level on average was 5, but it would peak to 9. Ibuprofen brought the pain level from 9 to 7 for two hours, vicoden brought their pain level from 9 to 5, but relief lasted only three to four hours. The subject entered open label study for 3 weeks. […].

[2] = Naltrexone and clonidine alone and in combination in a human subject: side effects over 24 hours; conditions: naltrexone 4.5 mg alone, clonidine 0.3 mg alone, combinations with naltrexone 2.25 mg
Experimental: as §1, §2

[3] = 0.5 mg, 42 IBS patients; cited from earlier work
[4] = cited from earlier work
[5] = full dose; cited from earlier work
leg pain = assay: Case study leg pain caused by L-5 radiculopathy; assay type: in vivo, human

Toll-like receptor 4 (TLR4), sequence (O00206 24-839, species assumed): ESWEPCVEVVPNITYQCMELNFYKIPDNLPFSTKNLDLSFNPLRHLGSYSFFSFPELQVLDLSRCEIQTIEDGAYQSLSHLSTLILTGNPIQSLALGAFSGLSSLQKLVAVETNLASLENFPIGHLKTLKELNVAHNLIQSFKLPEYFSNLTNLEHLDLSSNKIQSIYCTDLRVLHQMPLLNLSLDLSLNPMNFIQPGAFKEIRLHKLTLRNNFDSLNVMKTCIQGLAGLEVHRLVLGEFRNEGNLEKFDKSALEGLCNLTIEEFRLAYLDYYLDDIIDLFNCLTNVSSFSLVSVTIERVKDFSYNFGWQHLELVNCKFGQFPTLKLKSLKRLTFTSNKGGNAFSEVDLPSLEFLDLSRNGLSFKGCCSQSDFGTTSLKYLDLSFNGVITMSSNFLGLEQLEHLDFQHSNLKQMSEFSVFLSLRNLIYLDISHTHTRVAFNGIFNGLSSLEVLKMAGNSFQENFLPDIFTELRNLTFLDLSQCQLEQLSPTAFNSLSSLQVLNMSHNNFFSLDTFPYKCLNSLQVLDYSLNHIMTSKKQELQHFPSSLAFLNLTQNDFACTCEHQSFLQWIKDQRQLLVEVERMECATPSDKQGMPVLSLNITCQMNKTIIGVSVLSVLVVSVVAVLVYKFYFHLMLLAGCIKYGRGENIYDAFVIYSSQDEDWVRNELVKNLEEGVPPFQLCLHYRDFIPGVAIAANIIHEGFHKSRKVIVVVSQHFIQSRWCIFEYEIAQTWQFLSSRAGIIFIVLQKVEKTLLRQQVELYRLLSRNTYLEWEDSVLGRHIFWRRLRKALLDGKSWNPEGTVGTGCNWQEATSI
Toll-like receptor 4 (TLR4), sequence (Q9Y6Y9 17-160 limits assumed, species assumed): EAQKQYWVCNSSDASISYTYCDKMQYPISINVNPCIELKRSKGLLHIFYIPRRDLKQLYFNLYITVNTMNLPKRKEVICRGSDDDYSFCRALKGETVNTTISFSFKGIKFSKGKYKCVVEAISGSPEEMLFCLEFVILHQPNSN

Molecule: C=CCN1CC[C@]23c4c5ccc(O)c4O[C@H]2C(=O)CC[C@]3(O)[C@H]1C5 [(+)-naloxone]
- action at TLR4 [1]: selective antagonists of TLR4
- treating symptoms of neuropathic pain (neuropathic pain): effective

Molecule: O=C1CC[C@]2(O)[C@@H]3Cc4ccc(O)c5c4[C@]2(CCN3CC2CC2)[C@@H]1O5 [(+)-naltrexone]
- action at TLR4 [1]: selective antagonists of TLR4
- treating symptoms of neuropathic pain (neuropathic pain): effective
- affinity for opioid receptors (opioid receptors): lack affinity

Molecule: Clc1cccc(Cl)c1N=C1NCCN1 [Clonidine, clonidine]
- % reversal of pain (neuropathic back pain): 50%

Molecule: CC(C)Cc1ccc(C(C)C(=O)O)cc1 (centres unmarked) [Ibuprofen]
- pain level with previous medication (trigeminal neuralgia): 7

Molecule: O=C1CC[C@@]2(O)[C@H]3Cc4ccc(O)c5c4[C@@]2(CCN3CC2CC2)[C@H]1O5 [Naltrexone, naltrexone]
- % reversal of pain (neuropathic back pain): 100%
- side effects [2]: high incidence of alertness, insomnia and anxiety
- side effects [3]: no side effects were reported
- action at TLR4 [1]: antagonists for TLR4
- Anxiety frequency ([4]; 2.5 mg daily): 11.9%
- Diarrhea frequency ([4]; 2.5 mg daily): 6.0%
- Muscle pain frequency ([4]; 2.5 mg daily): 4.5%
- Anxiety frequency ([4]; 5.0 mg daily): 21.7%
- Diarrhea frequency ([4]; 5.0 mg daily): 13.0%
- Muscle pain frequency ([4]; 5.0 mg daily): 15.2%
- side effects that were short-lived ([4]; 24 patients, of those with side effects): 32.4%
- Abdominal pain, Percentage of Participants ([4]; 121 patients): 11.6%
- Anorexia, Percentage of Participants ([4]; 121 patients): 8.3%
- Anxiety, Percentage of Participants ([4]; 121 patients): 15.7%
- Diarrhea, Percentage of Participants ([4]; 121 patients): 8.3%
- Dizziness, Percentage of Participants ([4]; 121 patients): 10.7%
- Drowsiness, Percentage of Participants ([4]; 121 patients): 11.6%
- Headache, Percentage of Participants ([4]; 121 patients): 11.6%
- Insomnia, Percentage of Participants ([4]; 121 patients): 8.3%
- Mood change, Percentage of Participants ([4]; 121 patients): 3.3%
- Muscle pain, Percentage of Participants ([4]; 121 patients): 8.3%
- Nausea, Percentage of Participants ([4]; 121 patients): 12.4%
- No side effects, Percentage of Participants ([4]; 121 patients): 38.8%
- Terminated Naltrexone because of side effects ([4]; 121 patients): 16.5%
- Trouble concentrating, Percentage of Participants ([4]; 121 patients): 1.7%
- Vivid dreams, Percentage of Participants ([4]; 121 patients): 5.0%
- Total side effects, Percentage of Participants ([4]; 121 patients, listed as LDN): 61%
- Total side effects, Percentage of Participants ([4]; 121 patients, listed as Low Dose Naltrexone): 61.2%
- Total side effects, Percentage of Participants ([4]; 121 patients, listed as low dose Naltrexone): 61/2
- incidence of nervousness, insomnia, and anxiety ([4]; low dose): double digit incidence
- incidence of nervousness, insomnia, and anxiety [5]: single-digit incidence

Molecule: CN1CC[C@]23c4c5ccc(O)c4O[C@H]2[C@@H](O)C=C[C@H]3[C@H]1C5 [morphine]
- action at TLR4 [1]: TLR4 agonists

Molecule: C=CCN1CC[C@]23c4c5ccc(O)c4O[C@H]2C(=O)CC[C@@]3(O)[C@H]1C5 [naloxone]
- action at TLR4 [1]: antagonists for TLR4

Molecule: Etanercept
- duration of relief from previous treatment (leg pain; three perispinal injections): two
- relief from previous treatment (leg pain; three perispinal injections): 10%

Molecule: botulinum toxin
- duration of relief from previous treatment (leg pain; in vivo): two
- relief from previous treatment (leg pain; in vivo): 10%
